Laboratory results from US10494391B2, “Two-component anti-cancer composition” (KING FAHD UNIVERSITY OF PETROLEUM AND MINERALS, priority 2017, dated 2019).
“Also recorded” adds a separate entry of the source.

Key:
Format in all cases: cell-based
[1] = system: MCF7 (human breast cancer) cell line; test: MTT assay for in vitro cytotoxicity, MCF7; settings: for antiproliferative potential for MCF7 cells, in words (relative to cisplatin / within the series): comparison of IC50 values; for IC50: 24 h incubation with compound, three independent experiments, read-out: IC50 values against MCF7 cancer cell line
Description: (§1) The anticancer activity of complexes 1-5 was measured using a similar testing protocol reported earlier (M. Altaf et al., New J. Chem. 2015, 39, 377-385, incorporated herein by reference in its entirety) against a panel of representative human tumor cell lines, which included MCF7 (human breast cancer), HCT15 (human colon adenocarcinoma) and A549 (human lung carcinoma) cell lines. The cells were seeded at 3×10^3 cells/well in 100 μL DMEM containing 10% Fetal Bovine Serum (FBS) in 96-well tissue culture plate and incubated for 72 h at 37° C., 5% CO2 in air and 90% relative humidity in CO2 incubator. After incubation, 100 μL of 50, 25 and 12.5 μM solutions of cisplatin and complexes 1-5 prepared in Dulbecco's Modified Eagle's Medium (DMEM), were added to the cells and the cultures were incubated for 24 h. The medium of wells was discarded and 100 μL DMEM containing MTT (0.5 mg/mL) was added to the wells and incubated in CO2 incubator at 37° C. in dark for 4 h. After incubation, a purple colored formazan produced in the cells appeared as dark crystals in the bottom of the wells. The culture medium was discarded from each well carefully to prevent disruption of monolayer and 100 μL of dimethyl sulfoxide (DMSO) was added in each well. The solution in the wells was thoroughly mixed to dissolve the formazan crystals which produce a purple solution. The absorbance of the 96 well-plates was taken at 570 nm with Lab systems Multiskan EX ELISA reader against a reagent blank. The experimental results were presented as micro-mole concentration of 50% cell growth inhibition (IC50) of each compound. The MTT assay was performed in three independent experiments.
(§2) The synthesized gold(I)-phosphine complexes (1 and 2), gold(I)-dithiocarbamates (3-5) and cisplatin (standard classical anticancer drug) were tested for in vitro cytotoxicity against A549, MCF7 and HCT15 human cancer cell lines using MTT assay. The dose-dependent inhibition of cell proliferation was obtained by specific increase in concentration of tested compounds against fixed number of three human cancer cell lines. […] The highest activity of 4 might be attributed to the strong binding of dithiocarbamate sulfur to gold(I) that would prevent it to interact with plasma proteins in tissues, unlike cisplatin which was strongly bound to plasma proteins through sulfur atoms of thiols (S. Ahmad. Chem. Biodiv. 2010, 7, 543-566, incorporated herein by reference in its entirety).

[2] = system: HCT15 (human colon adenocarcinoma) cell line; test: MTT assay for in vitro cytotoxicity, HCT15; settings: for antiproliferative potential for HCT15 cells, in words (relative to cisplatin / within the series): comparison of IC50 values; for IC50: 24 h incubation with compound, three independent experiments, read-out: IC50 values against HCT15 cancer cell line
Description: as §1, §2

[3] = system: A549 (human lung carcinoma) cell line; test: MTT assay for in vitro cytotoxicity, A549; settings: for IC50: 24 h incubation with compound, three independent experiments, read-out: IC50 values against A549 cancer cell line; for activity against A549 cells, in words (relative to cisplatin / within the series): comparison of IC50 values
Description: as §1, §2

| Compound | antiproliferative potential for MCF7 cells, in words (relative to cisplatin / within the series) [1] | antiproliferative potential for HCT15 cells, in words (relative to cisplatin / within the series) [2] | IC50 [1] [µM] | IC50 [3] [µM] | IC50 [2] [µM] | activity against A549 cells, in words (relative to cisplatin / within the series) [3] |
| --- | --- | --- | --- | --- | --- | --- |
| NCC[P+]([Au-2][P+](CCN)(c1ccccc1)c1ccccc1)(c1ccccc1)c1ccccc1 [Complex 2, [Au(AEP)2]Cl] | about half with respect to cisplatin | comparable to cisplatin | – | – | – | – |
| N.N.[Cl][Pt][Cl] [cisplatin, reference compound] | – | – | 23.2 ± 3.79 | 42.2 ± 2.01 | 32 ± 2.12 | – |
| [Au2(S2CN(C2H5)2)2]n [Complex 4] | about half with respect to cisplatin; also recorded: most active among the series | comparable to cisplatin; also recorded: most active among the series | 48.8 ± 1.96 | 19.6 ± 0.85 | 38.9 ± 2.38 | most active among the series |
| [Au2(S2CN(CH3)2)2]n [Complex 3] | least effective | least effective | 139 ± 4.51 | 304 ± 5.9 | 257 ± 3.39 | least effective |
| [Au2(S2CN(CH7)2)2]n [Complex 5] | – | – | 76.3 ± 2.52 | 29.2 ± 1.81 | 69.1 ± 3.35 | – |
